Measured values published in PubChem BioAssay AID342 (DTP/NCI, 2004).
“And” between values parts separate entries of the source, which are not always exact repeats. Equal values may be shown once.

System: Swiss mice, Sarcoma 180 sc, mean tumor weight T/C
Assay: NCI In Vivo Anticancer Drug Screen. Data for tumor model Sarcoma 180 (subcutaneous) in Swiss mice
Settings: endpoint: mean tumor weight, higher = larger tumour
Experimental: The antitumor activity of compounds was measured in mice bearing transplantable tumors. Survival or tumor size were measured and the results are expressed as the measurement made in the treated group (T) divided by the measurement made in the vehicle treated control group (C). The tumor model used in this assay is Sarcoma 180 (subcutaneous) in Swiss mice

[1] = dose: 500.0 mg/kg/injection, schedule: Q01DX007 (ip), vehicle: saline
[2] = dose: 25.0 mg/kg/injection, schedule: Q#A X014 (ip), vehicle: methylcellulose (MC)

## CC(=O)Nc1cc2c(cc1[N+](=O)[O-])-c1ccccc1C2O (stereo not drawn)
dose: 98.0 mg/kg/injection, schedule: Q01DX007 (ip), vehicle: other
  T/C: 100 % of control
dose: 148.0 mg/kg/injection, schedule: Q01DX007 (ip), vehicle: other
  T/C: 120 % of control
dose: 333.0 mg/kg/injection, schedule: Q01DX007 (ip), vehicle: other
  T/C: 65 % of control and 67 % of control
dose: 333.0 mg/kg/injection, schedule: Q01DX007 (ip), vehicle: saline
  T/C: 81 % of control
dose: 500.0 mg/kg/injection, schedule: Q01DX007 (ip), vehicle: other
  T/C: 25 % of control
[1]
  T/C: 93 % of control
dose: 750.0 mg/kg/injection, schedule: Q01DX007 (ip), vehicle: saline
  T/C: 64 % of control

## Nc1ccc(C(=O)O)c(O)c1
dose: 95.87 mg/kg/injection, schedule: Q01DX007 (ip), vehicle: carboxymethylcellulose (CMC)
  T/C: 108 % of control and 121 % of control
dose: 306.8 mg/kg/injection, schedule: Q01DX007 (ip), vehicle: carboxymethylcellulose (CMC)
  T/C: 44 % of control
dose: 511.33 mg/kg/injection, schedule: Q01DX007 (ip), vehicle: carboxymethylcellulose (CMC)
  T/C: 57 % of control

## O=C1C=CC(=O)N1c1ccc2c(c1)C(Br)c1ccccc1-2 (stereo not drawn)
dose: 3.0 mg/kg/injection, schedule: Q#A X014 (ip), vehicle: carboxymethylcellulose (CMC)
  T/C: 97 % of control
dose: 5.5 mg/kg/injection, schedule: Q#A X014 (ip), vehicle: carboxymethylcellulose (CMC)
  T/C: 73 % of control
dose: 11.0 mg/kg/injection, schedule: Q#A X014 (ip), vehicle: carboxymethylcellulose (CMC)
  T/C: 109 % of control
dose: 11.0 mg/kg/injection, schedule: Q#A X014 (ip), vehicle: methylcellulose (MC)
  T/C: 45 % of control and 52 % of control
dose: 16.5 mg/kg/injection, schedule: Q#A X014 (ip), vehicle: carboxymethylcellulose (CMC)
  T/C: 102 % of control
dose: 16.5 mg/kg/injection, schedule: Q#A X014 (ip), vehicle: methylcellulose (MC)
  T/C: 32 % of control and 50 % of control
dose: 25.0 mg/kg/injection, schedule: Q#A X014 (ip), vehicle: carboxymethylcellulose (CMC)
  T/C: 99 % of control
[2]
  T/C: 40 % of control
dose: 37.5 mg/kg/injection, schedule: Q#A X014 (ip), vehicle: carboxymethylcellulose (CMC)
  T/C: 89 % of control

## Nc1nc(SCc2ccccn2)c2ncn(C3OC(CO)C(O)C3O)c2n1 (stereo not drawn)
dose: 11.1 mg/kg/injection, schedule: Q#A X014 (ip), vehicle: methylcellulose (MC)
  T/C: 52 % of control
dose: 16.65 mg/kg/injection, schedule: Q#A X014 (ip), vehicle: methylcellulose (MC)
  T/C: 48 % of control
[2]
  T/C: 37 % of control
dose: 37.5 mg/kg/injection, schedule: Q#A X014 (ip), vehicle: methylcellulose (MC)
  T/C: 41 % of control

## Cc1nnc2ncnc(N)c2n1
dose: 50.0 mg/kg/injection, schedule: Q01DX007 (ip), vehicle: carboxymethylcellulose (CMC)
  T/C: 106 % of control
dose: 75.0 mg/kg/injection, schedule: Q01DX007 (ip), vehicle: carboxymethylcellulose (CMC)
  T/C: 105 % of control

## CC(=O)[C@@]1(O)[C@H](C)C[C@H]2[C@@H]3C=C(C)C4=Cc5c(cnn5-c5ccccc5)C[C@]4(C)[C@H]3[C@@H](O)C[C@@]21C
dose: 0.11 mg/kg/injection, schedule: Q01DX007 (sc), vehicle: steriod suspending solution
  T/C: 95 % of control
dose: 0.17 mg/kg/injection, schedule: Q01DX007 (sc), vehicle: steriod suspending solution
  T/C: 84 % of control
dose: 0.75 mg/kg/injection, schedule: Q01DX007 (sc), vehicle: steriod suspending solution
  T/C: 22 % of control and 42 % of control
dose: 1.0 mg/kg/injection, schedule: Q01DX007 (sc), vehicle: steriod suspending solution
  T/C: 21 % of control
dose: 2.0 mg/kg/injection, schedule: Q01DX007 (sc), vehicle: steriod suspending solution
  T/C: 23 % of control
dose: 4.0 mg/kg/injection, schedule: Q01DX007 (sc), vehicle: steriod suspending solution
  T/C: 9 % of control

## Cc1cc(N=C2C=CC(=O)C=C2)c(C(C)C)cc1O
dose: 200.0 mg/kg/injection, schedule: Q01DX007 (ip), vehicle: other
  T/C: 52 % of control
dose: 300.0 mg/kg/injection, schedule: Q01DX007 (ip), vehicle: other
  T/C: 61 % of control
dose: 450.0 mg/kg/injection, schedule: Q01DX007 (ip), vehicle: other
  T/C: 59 % of control
dose: 600.0 mg/kg/injection, schedule: Q01DX007 (ip), vehicle: other
  T/C: 53 % of control

## O=NN1CCN(N=O)CC1
dose: 5.06 mg/kg/injection, schedule: Q#A X014 (ip), vehicle: carboxymethylcellulose (CMC)
  T/C: 100 % of control
dose: 20.25 mg/kg/injection, schedule: Q#A X014 (ip), vehicle: carboxymethylcellulose (CMC)
  T/C: 101 % of control
dose: 40.5 mg/kg/injection, schedule: Q#A X014 (ip), vehicle: carboxymethylcellulose (CMC)
  T/C: 88 % of control

## O=C1C=CC2(CCC23C=CC(=O)O3)O1 (stereo not drawn)
dose: 40.0 mg/kg/injection, schedule: Q01DX007 (ip), vehicle: saline
  T/C: 88 % of control

## CC(=O)Nc1cc2oc3ccccc3c2cc1[N+](=O)[O-]
dose: 220.0 mg/kg/injection, schedule: Q01DX007 (ip), vehicle: methylcellulose (MC)
  T/C: 67 % of control
dose: 335.0 mg/kg/injection, schedule: Q01DX007 (ip), vehicle: methylcellulose (MC)
  T/C: 67 % of control
dose: 400.0 mg/kg/injection, schedule: Q01DX007 (ip), vehicle: methylcellulose (MC)
  T/C: 72 % of control
dose: 500.0 mg/kg/injection, schedule: Q01DX007 (ip), vehicle: methylcellulose (MC)
  T/C: 52 % of control
dose: 600.0 mg/kg/injection, schedule: Q01DX007 (ip), vehicle: methylcellulose (MC)
  T/C: 77 % of control

## CCC(=O)O[C@H]1CC[C@H]2[C@@H]3CCC4=CC(=O)CC[C@]4(C)[C@H]3[C@@H](O)C[C@]12C
dose: 12.5 mg/kg/injection, schedule: Q#A X014 (sc), vehicle: steriod suspending solution
  T/C: 96 % of control
dose: 125.0 mg/kg/injection, schedule: Q#A X014 (sc), vehicle: steriod suspending solution
  T/C: 88 % of control
dose: 250.0 mg/kg/injection, schedule: Q#A X014 (sc), vehicle: steriod suspending solution
  T/C: 94 % of control

## CCCC(=O)OCC1OC(n2cnc3c(=S)nc(N)[nH]c32)C(OC(=O)CCC)C1OC(=O)CCC (stereo not drawn)
dose: 4.1 mg/kg/injection, schedule: Q01DX007 (ip), vehicle: carboxymethylcellulose (CMC)
  T/C: 52 % of control
dose: 6.2 mg/kg/injection, schedule: Q01DX007 (ip), vehicle: carboxymethylcellulose (CMC)
  T/C: 72 % of control
dose: 9.3 mg/kg/injection, schedule: Q01DX007 (ip), vehicle: carboxymethylcellulose (CMC)
  T/C: 45 % of control
dose: 47.0 mg/kg/injection, schedule: Q01DX007 (ip), vehicle: carboxymethylcellulose (CMC)
  T/C: 39 % of control

## CC(N)C(=O)NC1(C(=O)O)CCCC1 (stereo not drawn)
dose: 7.5 mg/kg/injection, schedule: Q#A X014 (ip), vehicle: carboxymethylcellulose (CMC)
  T/C: 75 % of control
dose: 15.0 mg/kg/injection, schedule: Q#A X014 (ip), vehicle: carboxymethylcellulose (CMC)
  T/C: 56 % of control
dose: 30.0 mg/kg/injection, schedule: Q#A X014 (ip), vehicle: carboxymethylcellulose (CMC)
  T/C: 62 % of control
dose: 60.0 mg/kg/injection, schedule: Q#A X014 (ip), vehicle: carboxymethylcellulose (CMC)
  T/C: 46 % of control

## C1CN1c1nc(N2CC2)nc(N2CC2)n1
dose: 85.0 micrograms/kg/injection, schedule: Q01DX007 (ip), vehicle: carboxymethylcellulose (CMC)
  T/C: 111 % of control
dose: 170.0 micrograms/kg/injection, schedule: Q01DX007 (ip), vehicle: carboxymethylcellulose (CMC)
  T/C: 95 % of control
dose: 340.0 micrograms/kg/injection, schedule: Q01DX007 (ip), vehicle: carboxymethylcellulose (CMC)
  T/C: 119 % of control
dose: 680.0 micrograms/kg/injection, schedule: Q01DX007 (ip), vehicle: carboxymethylcellulose (CMC)
  T/C: 124 % of control

## CN(C)[C@@H]1C(=O)C(C(=O)NCNC(CO)(CO)CO)=C(O)[C@@]2(O)C(=O)C3=C(O)c4c(O)cccc4[C@@](C)(O)[C@H]3C[C@@H]12
dose: 55.0 mg/kg/injection, schedule: Q#A X014 (ip), vehicle: saline
  T/C: 65 % of control
dose: 83.0 mg/kg/injection, schedule: Q#A X014 (ip), vehicle: saline
  T/C: 93 % of control
dose: 100.0 mg/kg/injection, schedule: Q01DX007 (ip), vehicle: methylcellulose (MC)
  T/C: 83 % of control
dose: 100.0 mg/kg/injection, schedule: Q01DX007 (ip), vehicle: saline
  T/C: 119 % of control
dose: 125.0 mg/kg/injection, schedule: Q#A X014 (ip), vehicle: saline
  T/C: 52 % of control
dose: 140.0 mg/kg/injection, schedule: Q01DX007 (ip), vehicle: methylcellulose (MC)
  T/C: 62 % of control
dose: 140.0 mg/kg/injection, schedule: Q01DX007 (ip), vehicle: saline
  T/C: 83 % of control
dose: 210.0 mg/kg/injection, schedule: Q01DX007 (ip), vehicle: methylcellulose (MC)
  T/C: 38 % of control
dose: 210.0 mg/kg/injection, schedule: Q01DX007 (ip), vehicle: other
  T/C: 86 % of control
dose: 210.0 mg/kg/injection, schedule: Q01DX007 (ip), vehicle: saline
  T/C: 65 % of control
dose: 320.0 mg/kg/injection, schedule: Q01DX007 (ip), vehicle: methylcellulose (MC)
  T/C: 33 % of control

## COc1ccc(-c2cc(=O)c3c(O)cc(OC)cc3o2)cc1
dose: 220.0 mg/kg/injection, schedule: Q01DX007 (ip), vehicle: saline
  T/C: 76 % of control
dose: 330.0 mg/kg/injection, schedule: Q01DX007 (ip), vehicle: saline
  T/C: 66 % of control
[1]
  T/C: 81 % of control
